According to PubChem BioAssay (NCI):
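The compound was tested at five concentrations on cells cultured in 96-well plates, with a 48-hour exposure period. At the GI50, growth is halved. TGI: total growth inhibition.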

How the values were obtained:
Test in all cases: NCI tumour cell line growth inhibition, 48 h
MDA-MB-231 breast = system: MDA-MB-231 breast
SF-539 CNS = system: SF-539 CNS
NCI-H460 lung = system: NCI-H460 lung
M14 melanoma = system: M14 melanoma
PC-3 prostate = system: PC-3 prostate
SNB-19 CNS = system: SNB-19 CNS
OVCAR-8 ovarian = system: OVCAR-8 ovarian
SF-295 CNS = system: SF-295 CNS
UO-31 renal = system: UO-31 renal
TK-10 renal = system: TK-10 renal
NCI-H23 lung = system: NCI-H23 lung
UACC-257 melanoma = system: UACC-257 melanoma
SK-MEL-5 melanoma = system: SK-MEL-5 melanoma
HCT-116 colon = system: HCT-116 colon
K-562 leukemia = system: K-562 leukemia
COLO 205 colon = system: COLO 205 colon
SK-MEL-2 melanoma = system: SK-MEL-2 melanoma
KM12 colon = system: KM12 colon
BT-549 breast = system: BT-549 breast
CAKI-1 renal = system: CAKI-1 renal
HOP-62 NSCLC = system: HOP-62 NSCLC
OVCAR-3 ovarian = system: OVCAR-3 ovarian
T-47D breast = system: T-47D breast
SK-OV-3 ovarian = system: SK-OV-3 ovarian
U251 CNS = system: U251 CNS
LOX IMVI melanoma = system: LOX IMVI melanoma
SW-620 colon = system: SW-620 colon
EKVX NSCLC = system: EKVX NSCLC
ACHN renal = system: ACHN renal
MOLT-4 leukemia = system: MOLT-4 leukemia
NCI-H226 lung = system: NCI-H226 lung
DU-145 prostate = system: DU-145 prostate
UACC-62 melanoma = system: UACC-62 melanoma
NCI-H522 lung = system: NCI-H522 lung
SF-268 CNS = system: SF-268 CNS
IGROV1 ovarian = system: IGROV1 ovarian
HCT-15 colon = system: HCT-15 colon
MDA-MB-435 = system: MDA-MB-435
MCF7 breast = system: MCF7 breast
CCRF-CEM leukemia = system: CCRF-CEM leukemia
786-0 renal = system: 786-0 renal
MALME-3M melanoma = system: MALME-3M melanoma
A498 renal = system: A498 renal
HS 578T breast = system: HS 578T breast
HOP-92 NSCLC = system: HOP-92 NSCLC
HL-60(TB) leukemia = system: HL-60(TB) leukemia
SN12C renal = system: SN12C renal
NCI/ADR-RES ovarian = system: NCI/ADR-RES ovarian
A549 NSCLC = system: A549 NSCLC

CC(C)(C)OC(=O)NCCCn1c2c(c3ccccc3c1=O)C(=O)c1ccccc1-2
GI50 (MDA-MB-231 breast): 12.9 µM | TGI (MDA-MB-231 breast): 48.8 µM | GI50 (SF-539 CNS): 10.3 µM | TGI (SF-539 CNS): 29.3 µM | GI50 (NCI-H460 lung): 33.9 µM | TGI (NCI-H460 lung): > 100 µM | GI50 (M14 melanoma): > 100 µM | TGI (M14 melanoma): > 100 µM | GI50 (PC-3 prostate): 51.5 µM | TGI (PC-3 prostate): > 100 µM | GI50 (SNB-19 CNS): 12.1 µM | TGI (SNB-19 CNS): 29.6 µM | GI50 (OVCAR-8 ovarian): 13.3 µM | TGI (OVCAR-8 ovarian): 58.2 µM | GI50 (SF-295 CNS): 16.8 µM | TGI (SF-295 CNS): 44.6 µM | GI50 (UO-31 renal): 71.5 µM | TGI (UO-31 renal): > 100 µM | GI50 (TK-10 renal): 22.3 µM | TGI (TK-10 renal): 63 µM | GI50 (NCI-H23 lung): 13.4 µM | TGI (NCI-H23 lung): 28.8 µM | GI50 (UACC-257 melanoma): 75.4 µM | TGI (UACC-257 melanoma): > 100 µM | GI50 (SK-MEL-5 melanoma): 35.2 µM | TGI (SK-MEL-5 melanoma): > 100 µM | GI50 (HCT-116 colon): 4.71 µM | TGI (HCT-116 colon): 17.8 µM | GI50 (K-562 leukemia): > 100 µM | TGI (K-562 leukemia): > 100 µM | GI50 (COLO 205 colon): > 100 µM | TGI (COLO 205 colon): > 100 µM | GI50 (SK-MEL-2 melanoma): 49.3 µM | TGI (SK-MEL-2 melanoma): > 100 µM | GI50 (KM12 colon): 67 µM | TGI (KM12 colon): > 100 µM | GI50 (BT-549 breast): 31.7 µM | TGI (BT-549 breast): > 100 µM | GI50 (CAKI-1 renal): 6.86 µM | TGI (CAKI-1 renal): 22.2 µM | GI50 (HOP-62 NSCLC): 11.8 µM | TGI (HOP-62 NSCLC): 31.3 µM | GI50 (OVCAR-3 ovarian): 8.73 µM | TGI (OVCAR-3 ovarian): 26.3 µM | GI50 (T-47D breast): 29.6 µM | TGI (T-47D breast): > 100 µM | GI50 (SK-OV-3 ovarian): 25 µM | TGI (SK-OV-3 ovarian): > 100 µM | GI50 (U251 CNS): 11.5 µM | TGI (U251 CNS): 28.3 µM | GI50 (LOX IMVI melanoma): 6.98 µM | TGI (LOX IMVI melanoma): 43 µM | GI50 (SW-620 colon): > 100 µM | TGI (SW-620 colon): > 100 µM | GI50 (EKVX NSCLC): 38.9 µM | TGI (EKVX NSCLC): > 100 µM | GI50 (ACHN renal): 14.3 µM | TGI (ACHN renal): 67.9 µM | GI50 (MOLT-4 leukemia): > 100 µM | TGI (MOLT-4 leukemia): > 100 µM | GI50 (NCI-H226 lung): 63.5 µM | TGI (NCI-H226 lung): > 100 µM | GI50 (DU-145 prostate): 74.8 µM | TGI (DU-145 prostate): > 100 µM | GI50 (UACC-62 melanoma): 20.4 µM | TGI (UACC-62 melanoma): 53.6 µM | GI50 (NCI-H522 lung): 42.4 µM | TGI (NCI-H522 lung): > 100 µM | GI50 (SF-268 CNS): 4.56 µM | TGI (SF-268 CNS): 17.7 µM | GI50 (IGROV1 ovarian): > 100 µM | TGI (IGROV1 ovarian): > 100 µM | GI50 (HCT-15 colon): > 100 µM | TGI (HCT-15 colon): > 100 µM | GI50 (MDA-MB-435): > 100 µM | TGI (MDA-MB-435): > 100 µM | GI50 (MCF7 breast): 15 µM | TGI (MCF7 breast): 39.4 µM | GI50 (CCRF-CEM leukemia): > 100 µM | TGI (CCRF-CEM leukemia): > 100 µM | GI50 (786-0 renal): 15.1 µM | TGI (786-0 renal): 41.6 µM | GI50 (MALME-3M melanoma): 32.9 µM | TGI (MALME-3M melanoma): > 100 µM | GI50 (A498 renal): 46.1 µM | TGI (A498 renal): > 100 µM | GI50 (HS 578T breast): 15.8 µM | TGI (HS 578T breast): 71.6 µM | GI50 (HOP-92 NSCLC): 12.5 µM | TGI (HOP-92 NSCLC): 43.5 µM | GI50 (HL-60(TB) leukemia): > 100 µM | TGI (HL-60(TB) leukemia): > 100 µM | GI50 (SN12C renal): 24.8 µM | TGI (SN12C renal): > 100 µM | GI50 (NCI/ADR-RES ovarian): 6.69 µM | TGI (NCI/ADR-RES ovarian): 98.6 µM | GI50 (A549 NSCLC): 41.9 µM | TGI (A549 NSCLC): > 100 µM
